Measurements as given in US4548943A, “Antiinflammatory, analgesic, or anti-primary dysmenorrheal arylmethylene- and arylmethylindenoimidazoles” (E. I. Du Pont de Nemours and Company, priority 1984, dated 1985).
Where two headings read alike, the source gives them in different places.

What was measured:
[1] = system: adjuvant-induced arthritis in rats; assay: Established adjuvant-induced arthritis in rats; type: in vivo, rat (male Charles River Lewis); conditions: for ED50: Rattus norvegicus, read-out: Adjuvant Arthritis ED50; for Adjuvant Arthritis, decrease in paw volume from controls at dose indicated: @ 9 mg/kg
[2] = system: phenylquinone writhing (mice); assay: Phenylquinone writhing test; type: in vivo, mouse (female white); conditions: for ED50: Mus musculus, po, read-out: PQW ED50; for PQW ED50: oral
Experimental: Phenylquinone Writhing Test
A standard procedure for detecting and comparing the analgesic activity of compounds in this series for which there is a good correlation with human efficacy is the standard phenylquinone writhing test modified from Siegmund, et al., Proc. Soc. Exp. Biol. Med., 95, 729 (1957). A test compound suspended in 1% methylcellulose was given orally to fasted (17-21 hours) female white mice, 5-20 animals per double blind test. Aqueous (0.01% phenyl-p-benzoquinone)phenylquinone, 0.20 ml per mouse, was injected intraperitoneally 6 minutes before observations were begun. […] Rev., 11, 115-145 (1947). Data for some of the compounds is summarized in Table 4 together with data for some standard analgetic antiinflammatory drugs.

[3] = target: T1, bovine seminal vesicle prostaglandin synthetase (PGS) (Bos taurus, UniProt O62664); assay: Prostaglandin synthetase inhibition assay; type: biochemical; conditions: 14C-arachidonic acid 0.02 mM, pH 8.5, 10 minutes
T1 construct: purchased Miles; host or cells: bovine seminal vesicle
T1 sequence (O62664 25-600): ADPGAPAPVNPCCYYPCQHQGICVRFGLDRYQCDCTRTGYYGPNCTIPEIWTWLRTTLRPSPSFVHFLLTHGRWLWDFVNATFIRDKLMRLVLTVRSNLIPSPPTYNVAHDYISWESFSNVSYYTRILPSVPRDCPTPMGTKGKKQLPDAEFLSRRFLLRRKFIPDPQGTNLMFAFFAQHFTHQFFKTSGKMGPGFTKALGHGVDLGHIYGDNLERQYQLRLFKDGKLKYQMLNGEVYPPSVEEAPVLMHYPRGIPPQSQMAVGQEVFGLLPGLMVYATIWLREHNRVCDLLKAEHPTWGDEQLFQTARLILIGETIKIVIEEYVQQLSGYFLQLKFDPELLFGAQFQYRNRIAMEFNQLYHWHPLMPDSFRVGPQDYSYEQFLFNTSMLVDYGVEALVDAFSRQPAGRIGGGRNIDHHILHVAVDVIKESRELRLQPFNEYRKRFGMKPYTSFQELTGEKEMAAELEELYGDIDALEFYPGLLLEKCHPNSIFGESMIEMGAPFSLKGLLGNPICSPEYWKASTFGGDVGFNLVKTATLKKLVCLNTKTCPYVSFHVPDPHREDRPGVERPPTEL
Experimental: Prostaglandin Synthetase Inhibition Assay
The resulting labelled prostaglandins were isolated on small columns of Bio-Sil® A silica gel. The reaction was buffered with 0.13M Tris.Cl (pH 8.5) and included 0.6 mM epinephrine, 2.1 mM reduced glutathione, and 0.09 mM EDTA, which favored PGE2 as the primary product [C. […] Miles bovine seminal vesicle prostaglandin synthetase (20 μg), inhibitor, cofactor, and buffer were mixed and preincubated for two minutes at 37° C. The substrate was added to initiate the reaction which was run for 10 minutes. The reaction was stopped by freezing in a slurry of dry ice/ethanol. All reactions were run in duplicate. Inhibitors were bead-milled overnight and diluted in reaction buffer (0.2M Tris.Cl, pH 8.5). Inhibition was calculated by the following formula: [formula]

[4] = fasted female white mice, phenylquinone i.p.
[5] = oral, 7 daily doses, ED50 % decrease from control paw volume, uninjected left hind paw

Row | SMILES | IC50 [3] [nM] | ED50 ([1]; po) [mg/kg] | ED50 [2] [mg/kg] | Adjuvant Arthritis, decrease in paw volume from controls at dose indicated ([1]; oral, 7 daily doses) [%] | ED50 [2, 4] [mg/kg] | ED50 [1, 5] [mg/kg] | PQW ED50 [2, 4] [mg/kg]
1 | COc1ccc2c(c1)c(CC(=O)O)c(C)n2C(=O)c1ccc(Cl)cc1 [Indomethacin, indomethacin, reference compound] |  | 0.25 | 0.35 |  |  |  | 
2 | COc1ccc(C=C2c3ccccc3-c3nc(S(=O)(=O)C(F)(F)F)[nH]c32)cc1 [Example 8, 1,8-dihydro(or 3,8-dihydro)-2-(trifluoromethylsulfonyl)-8-[(4-methoxyphenyl)methylene]-indeno[1,2-d]imidazole, Z isomer] | 310 |  |  | 5 |  |  | > 36
3 | CC(C)Cc1ccc(C(C)C(=O)O)cc1 (stereo not drawn) [Ibuprofen, ibuprofen, reference compound] |  |  |  |  | 10 | 80 | 
4 | O=S(=O)(c1nc2c([nH]1)/C(=C/c1ccccc1)c1ccccc1-2)C(F)(F)F [Example 5, 1,8-Dihydro(or 3,8-dihydro)-2-(trifluoromethylsulfonyl)-8-(phenylmethylene)indeno[1,2-d]imidazole, E isomer] | 23 |  |  |  | 1 | 5.3 | 
5 | CCCCC1C(=O)N(c2ccccc2)N(c2ccccc2)C1=O [Phenylbutazone, phenylbutazone, reference compound] | 270000 |  |  |  | 80 | 10 | 
6 | O=S(=O)(c1nc2c([nH]1)/C(=C\c1ccccc1)c1ccccc1-2)C(F)(F)F [Example 3] | 930 |  |  | 37 | > 81 |  | 
7 | COc1ccc(CC2c3ccccc3-c3nc(S(=O)(=O)C(F)(F)F)[nH]c32)cc1 (stereo not drawn) [Example 4, 1,8-DIHYDRO(OR 3,8-DIHYDRO)-2-(TRIFLUOROMETHYLSULFONYL)-8-[(4-METHOXYPHENYL)METHYL]INDENO[1,2-d]-IMIDAZOLE] | 1200 |  |  |  |  |  | 
8 | CC(=O)Oc1ccccc1C(=O)O [Aspirin, aspirin, reference compound] |  |  | 135 |  |  |  | 

Continued, in another order:

Row | IC50 [3] [nM] | SMILES | ED50 ([1]; po) [mg/kg] | ED50 [2] [mg/kg] | Adjuvant Arthritis, decrease in paw volume from controls at dose indicated ([1]; oral, 7 daily doses) [%] | ED50 [2, 4] [mg/kg] | ED50 [1, 5] [mg/kg] | PQW ED50 [2, 4] [mg/kg]
9 | < 75000 | FC(F)(F)Sc1nc2c([nH]1)/C(=C/c1ccccc1)c1ccccc1-2 [Example 2] |  |  | 12 | 35 |  | 
10 | 420 | O=S(=O)(c1nc2c([nH]1)C(=Cc1ccc(F)cc1)c1ccccc1-2)C(F)(F)F [Example 13] |  |  |  | 53.6 | 9.8 | 
11 | 20 | COc1ccc(C=C2c3ccccc3-c3nc(S(=O)(=O)C(F)(F)F)[nH]c32)cc1 [Example 9, 1,8-Dihydro(or 3,8-dihydro)-2-(trifluoromethylsulfonyl)-8-[(4-methoxyphenyl)methylene]indeno[1,2-d]imidazole, E isomer] |  |  |  |  | 1.95 | 1.44
12 | 2700 | Fc1ccc(C=C2c3ccccc3-c3nc(SC(F)(F)F)[nH]c32)cc1 [Example 11] |  |  | 39 | 21 |  | 
13 | 480 | [O-][S+](c1nc2c([nH]1)C(=Cc1ccc(F)cc1)c1ccccc1-2)C(F)(F)F (stereo not drawn) [Example 12, 1,8-Dihydro(or 3,8-dihydro)-2-(trifluoromethylsulfinyl)-8-[(4-fluorophenyl)methylene]indeno[1,2-d]imidazole, E isomer] |  |  | 48 | 0.76 |  | 
14 | 580 | COc1ccc(C=C2c3ccccc3-c3nc(SC(F)(F)F)[nH]c32)cc1 [Example 7] |  |  | 39 | > 108 |  | 
